Activity calls are given as the source filed them. The calls are words filed in the database; no cut-off is given here.
Legend:
[1] = Toxicity in BALB/c mouse xenografted with human NCI-H1975 cells assessed as change in liver morphological changes at 5 to 20 mg/kg/day, ip by hematoxylin-eosin staining based analysis; assay type: organism-based; conditions: in vivo, dose 5-20 mg/kg/day
Mus musculus [2] = assay: In vivo inhibition of EGFR L858R/T790M mutant in NCI-H1975 cells xenografted BALB/c mouse assessed as inhibition of AKT phosphorylation at Ser473 residue at 5 to 20 mg/kg/day, ip in tumor by immunohistochemistry; assay type: functional, organism-based; conditions: dose 5-20 mg/kg/day
Mus musculus [3] = assay: In vivo inhibition of EGFR L858R/T790M mutant in NCI-H1975 cells xenografted BALB/c mouse assessed as inhibition of EGFR phosphorylation at Tyr1068 residue in tumor at 20 mg/kg/day, ip by immunoblot analysis; assay type: functional, organism-based
[4] = biological target: T1, Epidermal growth factor receptor (Homo sapiens, UniProt P00533); assay: Inhibition of wild type EGFR in human A549 cells assessed as inhibition of EGF-induced Akt phosphorylation at Ser473 residue at 10 uM pretreated with compound for 4 hrs followed by incubation with EGF for 10 mins by western blot analysis; assay type: toxicity, cell-based; conditions: a549, 4.167 h, time 250 min
[5] = Toxicity in BALB/c mouse xenografted with human NCI-H1975 cells assessed as change in lung morphological changes at 5 to 20 mg/kg/day, ip by hematoxylin-eosin staining based analysis; assay type: organism-based; conditions: in vivo, dose 5-20 mg/kg/day
[6] = Toxicity in BALB/c mouse xenografted with N-(3-((6-Fluoro-2-((4-(4-methylpiperazin-1-yl)phenyl)amino)quinazolin-4-yl)amino)phenyl)acrylamide-resistant human NCI-H1975 cells assessed as effect on body weight at 20 mg/kg/day, ip in presence of ACK1 inhibitor, dasatinib; assay type: organism-based; conditions: in vivo
HCC827 = assay: Induction of apoptosis in human HCC827 cells assessed as increase in caspase-3/7 activity at 0.1 to 10 uM incubated for 24 hrs by Caspase-Glo reagent based luminescence analysis; assay type: functional, cell-based; conditions: dose 0.1-10 µM
[7] = Toxicity in BALB/c mouse xenografted with human NCI-H1975 cells assessed as change in heart morphological changes at 5 to 20 mg/kg/day, ip by hematoxylin-eosin staining based analysis; assay type: organism-based; conditions: in vivo, dose 5-20 mg/kg/day
[8] = Apparent volume of distribution in Sprague-Dawley rat at 1 mg/kg, iv by LC-MS analysis; assay type: ADME, organism-based; conditions: in vivo, read-out: Vz
A549 [9] = assay: Induction of apoptosis in human A549 cells assessed as induction of caspase-3 cleavage at 0.1 to 10 uM pretreated with compound for 4 hrs followed by incubation with EGF for 10 mins by western blot analysis; assay type: toxicity, cell-based; conditions: a549, 4.167 h, dose 0.1-10 µM, time 250 min
[10] = biological target: T1, Epidermal growth factor receptor; assay: Inhibition of wild type EGFR in human A549 cells assessed as inhibition of EGF-induced ERK-1/2 phosphorylation at 10 uM pretreated with compound for 4 hrs followed by incubation with EGF for 10 mins by western blot analysis; assay type: toxicity, cell-based; conditions: a549, 4.167 h, time 250 min
[11] = system: Epidermal growth factor receptor (Homo sapiens), P00533 [L858R,T790M]; assay: Inhibition of EGFR L858R/T790M mutant in osimertinib-resistant human NCI-H1975 cells assessed as inhibition of EGF-induced Akt phosphorylation at Ser473 residue pretreated with compound for 4 hrs followed by incubation with EGF for 10 mins by western blot analysis; assay type: cell-based; conditions: time 250.0 min
[12] = Toxicity in BALB/c mouse xenografted with human NCI-H1975 cells assessed as effect on body weight at 5 to 20 mg/kg/day, ip; assay type: organism-based; conditions: in vivo, dose 5-20 mg/kg/day
Mus musculus [13] = assay: In vivo inhibition of EGFR L858R/T790M mutant in N-(3-((6-Fluoro-2-((4-(4-methylpiperazin-1-yl)phenyl)amino)quinazolin-4-yl)amino)phenyl)acrylamide-resistant human NCI-H1975 cells xenografted BALB/c mouse assessed as inhibition of AKT phosphorylation at Ser473 residue in tumor at 20 mg/kg/day, ip in presence of ACK1 inhibitor, dasatinib by immunoblot analysis; assay type: functional, organism-based
Mus musculus [14] = assay: In vivo inhibition of EGFR L858R/T790M mutant in ip dosed NCI-H1975 cells xenografted BALB/c mouse assessed as inhibition of AKT phosphorylation at Ser473 residue in tumor by immunoblot analysis; assay type: functional, organism-based; conditions: dose 5-20 mg/kg/day
[15] = system: Epidermal growth factor receptor (Homo sapiens), P00533 [UNDEFINED MUTATION]; assay: Inhibition of human EGFR exon del19 mutant assessed as residual activity at 1 uM by KINOMEscan analysis
NCI-H1975 [16] = assay: Antitumor activity against human NCI-H1975 cells xenografted in ip dosed BALB/c mouse assessed as decrease in tumor volume; assay type: functional, organism-based; conditions: dose 5-20 mg/kg/day
[17] = biological target: T1, Epidermal growth factor receptor; assay: Inhibition of wild type EGFR in human A-431 cells assessed as inhibition of EGF-induced Akt phosphorylation at Ser473 residue at 0.1 to 10 uM pretreated with compound for 4 hrs followed by incubation with EGF for 10 mins by western blot analysis; assay type: toxicity, cell-based; conditions: a-431, 4.167 h, dose 0.1-10 µM, time 250 min
NCI-H1975 [18] = assay: Antitumor activity against human NCI-H1975 cells xenografted in BALB/c mouse assessed as inhibition of tumor burden at 20 mg/kg/day, ip; assay type: functional, organism-based
NCI-H1975 [19] = assay: Induction of apoptosis in human NCI-H1975 cells assessed as increase in caspase-3/7 activity at 0.1 to 10 uM incubated for 24 hrs by Caspase-Glo reagent based luminescence analysis; assay type: functional, cell-based; conditions: dose 0.1-10 µM
NCI-H1975 [20] = assay: Antitumor activity against human NCI-H1975 cells xenografted in BALB/c mouse assessed as tumor regression at 5 to 10 mg/kg/day, ip; assay type: functional, organism-based; conditions: dose 5-10 mg/kg/day
A549 [21] = assay: Induction of apoptosis in human A549 cells assessed as increase in caspase-3/7 activity at 0.1 to 10 uM incubated for 24 hrs by Caspase-Glo reagent based luminescence analysis; assay type: toxicity, cell-based; conditions: a549, 24 h, dose 0.1-10 µM
Mus musculus [22] = assay: In vivo inhibition of EGFR L858R/T790M mutant in NCI-H1975 cells xenografted BALB/c mouse assessed as inhibition of AKT phosphorylation at Ser473 residue in tumor at 20 mg/kg/day, ip by immunoblot analysis; assay type: functional, organism-based
NCI-H1975 [23] = assay: Inhibition of clonogenicity in human NCI-H1975 cells assessed as inhibition of colony formation at 0.1 uM incubated for 14 days by crystal violet staining based analysis; assay type: functional, cell-based; conditions: time 14.0 day
NCI-H1975 [24] = assay: Antiproliferative activity against N-(3-((6-Fluoro-2-((4-(4-methylpiperazin-1-yl)phenyl)amino)quinazolin-4-yl)amino)phenyl)acrylamide-resistant human NCI-H1975 cells assessed as reduction in cell viability at compound:AIM100 concentration ratio of 3:1 to 1:3 measured after 72 hrs in presence of ACK1 inhibitor, AIM100 by MTT assay; assay type: functional, cell-based
NCI-H1975 [25] = assay: Antitumor activity against N-(3-((6-Fluoro-2-((4-(4-methylpiperazin-1-yl)phenyl)amino)quinazolin-4-yl)amino)phenyl)acrylamide-resistant human NCI-H1975 cells xenografted in BALB/c mouse assessed as inhibition of tumor volume at 20 mg/kg/day, ip in presence of ACK1 inhibitor, dasatinib; assay type: functional, organism-based
NCI-H1975 [26] = assay: Induction of apoptosis in human NCI-H1975 cells assessed as induction of caspase-3 cleavage pretreated with compound for 4 hrs followed by incubation with EGF for 10 mins by western blot analysis; assay type: functional, cell-based; conditions: dose 0.1-10 µM, time 250.0 min
Mus musculus [27] = species on record: Mus musculus; conditions: BALB/c, dose 10.0 mg/kg/day, route po

T1 sequence (P00533 whole entry): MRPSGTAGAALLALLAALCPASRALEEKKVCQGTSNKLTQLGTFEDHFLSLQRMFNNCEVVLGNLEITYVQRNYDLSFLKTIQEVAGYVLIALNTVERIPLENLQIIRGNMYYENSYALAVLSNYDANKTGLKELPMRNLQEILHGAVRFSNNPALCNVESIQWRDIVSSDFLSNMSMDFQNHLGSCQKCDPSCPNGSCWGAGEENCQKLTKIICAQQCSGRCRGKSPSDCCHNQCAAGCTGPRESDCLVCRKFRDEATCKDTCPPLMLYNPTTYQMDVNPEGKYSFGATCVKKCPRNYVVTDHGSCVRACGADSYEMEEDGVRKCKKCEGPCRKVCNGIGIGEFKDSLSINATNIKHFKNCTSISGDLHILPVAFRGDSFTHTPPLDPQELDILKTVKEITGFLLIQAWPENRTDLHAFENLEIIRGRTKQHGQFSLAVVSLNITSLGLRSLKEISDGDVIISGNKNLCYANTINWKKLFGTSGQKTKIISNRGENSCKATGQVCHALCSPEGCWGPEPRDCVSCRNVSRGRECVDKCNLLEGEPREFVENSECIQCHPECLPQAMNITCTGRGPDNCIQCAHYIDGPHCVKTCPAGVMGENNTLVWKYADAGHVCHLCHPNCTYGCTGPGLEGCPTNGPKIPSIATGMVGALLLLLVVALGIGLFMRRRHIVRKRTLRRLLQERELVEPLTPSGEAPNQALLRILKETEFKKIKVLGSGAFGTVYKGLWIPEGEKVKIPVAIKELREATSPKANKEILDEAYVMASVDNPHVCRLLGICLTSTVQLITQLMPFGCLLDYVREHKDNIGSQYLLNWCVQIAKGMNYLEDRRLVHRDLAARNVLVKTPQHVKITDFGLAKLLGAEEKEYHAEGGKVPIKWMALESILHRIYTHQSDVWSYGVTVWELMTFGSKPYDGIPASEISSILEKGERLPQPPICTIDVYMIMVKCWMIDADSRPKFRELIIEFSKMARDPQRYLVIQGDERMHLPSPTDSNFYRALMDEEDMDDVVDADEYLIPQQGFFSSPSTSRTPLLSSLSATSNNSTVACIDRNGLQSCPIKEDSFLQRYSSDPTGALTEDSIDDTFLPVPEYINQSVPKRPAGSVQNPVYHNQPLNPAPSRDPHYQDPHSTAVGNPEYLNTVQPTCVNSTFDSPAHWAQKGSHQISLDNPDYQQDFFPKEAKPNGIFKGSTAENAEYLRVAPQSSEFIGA
Chain of Epidermal growth factor receptor (Homo sapiens), P00533 [UNDEFINED MUTATION] (P00533 whole entry, looked up, stated change not applied): as the sequence (P00533 whole entry) above
Chain of Epidermal growth factor receptor (Homo sapiens), P00533 [L858R,T790M] (P00533 whole entry T790M/L858R, looked up): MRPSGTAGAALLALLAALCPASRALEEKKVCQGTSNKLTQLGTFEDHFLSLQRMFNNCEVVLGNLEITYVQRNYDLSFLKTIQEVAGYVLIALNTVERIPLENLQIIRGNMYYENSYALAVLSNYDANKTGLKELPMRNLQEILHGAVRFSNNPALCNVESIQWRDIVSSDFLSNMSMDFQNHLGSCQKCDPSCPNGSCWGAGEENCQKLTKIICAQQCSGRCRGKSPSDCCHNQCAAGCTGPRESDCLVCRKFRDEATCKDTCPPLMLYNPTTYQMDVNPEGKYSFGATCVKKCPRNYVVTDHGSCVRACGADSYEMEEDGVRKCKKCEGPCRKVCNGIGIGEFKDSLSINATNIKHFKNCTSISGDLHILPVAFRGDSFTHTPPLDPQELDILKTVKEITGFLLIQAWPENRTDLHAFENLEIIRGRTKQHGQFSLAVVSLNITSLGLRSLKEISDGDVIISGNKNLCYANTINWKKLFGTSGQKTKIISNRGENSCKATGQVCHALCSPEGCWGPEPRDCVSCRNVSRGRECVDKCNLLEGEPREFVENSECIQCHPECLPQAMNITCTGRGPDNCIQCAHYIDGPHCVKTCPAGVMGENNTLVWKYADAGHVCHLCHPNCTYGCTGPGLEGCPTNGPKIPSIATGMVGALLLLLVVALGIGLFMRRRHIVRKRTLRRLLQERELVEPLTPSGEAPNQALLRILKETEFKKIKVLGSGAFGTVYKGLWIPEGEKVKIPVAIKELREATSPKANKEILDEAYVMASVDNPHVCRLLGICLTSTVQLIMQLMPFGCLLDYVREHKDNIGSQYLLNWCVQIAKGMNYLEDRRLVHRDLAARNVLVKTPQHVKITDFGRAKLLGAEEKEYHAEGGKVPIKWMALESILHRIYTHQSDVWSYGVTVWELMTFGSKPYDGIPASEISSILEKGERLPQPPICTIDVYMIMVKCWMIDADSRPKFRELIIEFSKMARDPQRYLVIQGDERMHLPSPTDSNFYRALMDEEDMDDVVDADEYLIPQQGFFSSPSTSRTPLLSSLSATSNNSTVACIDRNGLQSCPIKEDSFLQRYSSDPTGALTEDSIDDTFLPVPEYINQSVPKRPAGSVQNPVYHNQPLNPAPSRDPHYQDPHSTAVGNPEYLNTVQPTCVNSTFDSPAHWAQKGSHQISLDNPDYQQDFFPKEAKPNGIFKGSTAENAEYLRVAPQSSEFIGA

C=CC(=O)Nc1cccc(Nc2nc(Nc3ccc(N4CCN(C)CC4)cc3)nc3ccc(F)cc23)c1
Activity [1]: Non-Toxic | inhibition (Mus musculus [2]): Active | inhibition (Mus musculus [3]): Active | inhibition (INH) [4]: Not Active | Activity [5]: Non-Toxic | Activity [6]: Non-Toxic | Activity (HCC827): Active | Activity [7]: Non-Toxic | Vd [8]: 2.52 L/kg | Activity (A549 [9]): Non-Toxic | inhibition (INH) [10]: Not Active | inhibition [11]: inactive | Activity [12]: Non-Toxic | inhibition (Mus musculus [13]): Active | inhibition (Mus musculus [14]): Dose-Dependent Effect | Activity [15]: 0% | Activity (NCI-H1975 [16]): Dose-Dependent Effect | inhibition (INH) [17]: Not Active | Activity (NCI-H1975 [18]): Active | Activity (NCI-H1975 [19]): Active | Activity (NCI-H1975 [20]): Active | Activity (A549 [21]): Non-Toxic | inhibition (Mus musculus [22]): Active | inhibition (NCI-H1975 [23]): Active | Activity (NCI-H1975 [24]): Active | Activity (NCI-H1975 [25]): Active | Activity (NCI-H1975 [26]): Dose-Dependent Effect

C=CC(=O)Nc1cc(Nc2nccc(-c3cn(C)c4ccccc34)n2)c(OC)cc1N(C)CCN(C)C [OSIMERTINIB]
inhibition (Mus musculus [27]): Active
